pIC50: −log10 of the molar value.

In the test the target is T1, CCR3 (Cavia porcellus, UniProt Q9Z2I3).
T1 construct: from tissue; host or cells: peritoneal eosinophils of polymyxin B-treated male Hartley guinea pigs (Japan SLC, Inc.)
T1 sequence (Q9Z2I3 1-358): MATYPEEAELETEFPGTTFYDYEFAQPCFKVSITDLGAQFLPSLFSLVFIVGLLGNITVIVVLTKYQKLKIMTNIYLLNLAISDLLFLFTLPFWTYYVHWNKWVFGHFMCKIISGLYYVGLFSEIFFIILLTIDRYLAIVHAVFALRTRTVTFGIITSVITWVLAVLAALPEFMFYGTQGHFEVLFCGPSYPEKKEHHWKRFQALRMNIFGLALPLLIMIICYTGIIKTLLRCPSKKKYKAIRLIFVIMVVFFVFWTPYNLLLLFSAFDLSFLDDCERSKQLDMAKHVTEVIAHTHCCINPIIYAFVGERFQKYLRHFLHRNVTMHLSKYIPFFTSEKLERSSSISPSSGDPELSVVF
The test can be described thus: CCR3 antagonistic action: eotaxin-induced migration of guinea pig eosinophils (chemotaxis chamber). The class given is cell-based. The settings on record: inhibition of migration of guinea pig eosinophils toward guinea pig eotaxin 100 ng/mL; 30 min pretreatment at 37° C., 1 hour reaction. As for the experimental part: Test Example 1 Test of a CCR3 Antagonistic Action
Guinea pig eosinophils were prepared with reference to a literature (Pinkus, Blood. 52 (1978) 127-134). That is, to a six-week old male Hartley guinea pig (Japan SLC, Inc.) was intraperitoneally injected polymyxin B (SIGMA) diluted with PBS (−) at 2 mg per animal once a week. After repeating the same operation four times for 24 hours, the abdominal cavity of each individual under anesthesia with diethyl ether was injected with 50 mL of PBS (−) containing 6 U/mL of heparin and 1 mM EDTA, and the liquid was collected. It was washed with PBS (−) containing 1 mM EDTA, and the cells were suspended in a Percoll solution having a specific density of 1.070 were centrifuged using a discontinuous Percoll gradient liquid to obtain an eosinophilic crude fraction. After washing with PBS (−), they were suspended in RPMI-1640 culture medium (SIGMA) containing 1% FCS, and cultured in a CO2 incubator overnight. Next day, the cells were harvested, a compound to be tested was added to the eosinophils suspended in the RPMI-1640 culture medium containing 0.1% BSA (bovine serum albumin, SIGMA), and then pretreatment was performed by leaving it to stand still at 37° C. for 30 minutes. A mixed liquid of guinea pig eotaxin (Chemical Synthesis Services) and the compound to be tested that had been prepared to be at a final concentration of 100 ng/mL was added into a lower chamber of 96-well chemotaxis chambers (Neuroprobe), and then a mixed liquid of 12.0×10^5 eosinophils per well and the compound to be tested was sequentially set in an upper chamber of a polycarbonate filter (Neuroprobe) having a pore size of 5 μm after completion of the treatment with polyvinyl pyrrolidone (PVP), and allowed to undergo a reaction in a CO2 incubator for 1 hour. After completion of the reaction, the filter was taken out, the cells were stained in a Diff-Quik stain kit (International Reagents Co., Ltd.), and the migrated eosinophils were microscopically counted. Five fields of view per well were counted, and an average value of the counts was taken as a count of migrated eosinophils.
Turning to `CC(C)(C)c1ccc(CNCCN2Cc3ccccc3CC2Cc2ccc(F)cc2)cc1` (stereo not drawn) [Example 96, N-(4-tert-butylbenzyl)-2-[3-(4-fluorobenzyl)-3,4-dihydroisoquinolin-2(1H)-yl]ethanamine], the pIC50 was 7.52.

In the case of `CC(=O)c1cccc(CNCCN2Cc3ccccc3CC2Cc2ccc(F)cc2)c1` (stereo not drawn) [Example 106, N-(3-acetylbenzyl)-2-[3-(4-fluorobenzyl)-3,4-dihydroisoquinolin-2(1H)-yl]ethanamine], the pIC50 was 8.15.

Turning to `CS(=O)(=O)Nc1cccc(CNCCN2Cc3ccc(F)cc3CC2Cc2ccc(F)cc2)c1` (stereo not drawn) [Example 126, N-[3-(methanesulfonylamino)benzyl]-2-[6-fluoro-3-(4-fluorobenzyl)-3,4-dihydroisoquinolin-2(1H)-yl]ethanamine], the pIC50 is 9.00.

`CC(C)Nc1ccc(CNCCN2Cc3ccc(F)cc3CC2Cc2ccc(F)cc2)cc1` (stereo not drawn) [Example 138, 4-[[2-[6-fluoro-3-(4-fluorobenzyl)-3,4-dihydroisoquinolin-2(1H)-yl]ethylamino]methyl]-N-isopropylaniline]: the pIC50 was 8.40.

With `CCNc1ccc(CNCCN2Cc3ccc(F)cc3CC2Cc2ccc(F)cc2)cc1` (stereo not drawn) [Example 139, 4-[[2-[6-fluoro-3-(4-fluorobenzyl)-3,4-dihydroisoquinolin-2(1H)-yl]ethylamino]methyl]-N-ethylaniline], the pIC50 was 7.40.

Regarding `COCCNc1ccc(CNCCN2Cc3ccc(F)cc3CC2Cc2ccc(F)cc2)cc1` (stereo not drawn) [Example 150, 4-[[2-[6-fluoro-3-(4-fluorobenzyl)-3,4-dihydroisoquinolin-2(1H)-yl]ethylamino]methyl]-N-(2-methoxyethyl)aniline], the pIC50 was 8.40.

Turning to `CC(C)(O)c1ccc(CNCCN2Cc3ccc(F)cc3CC2Cc2ccc(F)cc2)cc1` (stereo not drawn) [Example 154, N-[4-(1-hydroxy-1-methylethyl)benzyl]-2-[6-fluoro-3-(4-fluorobenzyl)-3,4-dihydroisoquinolin-2(1H)-yl]ethanamine], the pIC50 is 7.70.

On to `CC(C)(C)c1ccc(CNCCN2Cc3ccc(F)cc3CC2Cc2ccc(Cl)cc2)cc1` (stereo not drawn) [Example 156, N-(4-tert-butylbenzyl)-2-[3-(4-chlorobenzyl)-6-fluoro-3,4-dihydroisoquinolin-2(1H)-yl]ethanamine], for which the pIC50 is 7.10.

For the compound `CS(=O)(=O)Nc1cccc(CNCCN2Cc3ccc(F)cc3CC2Cc2ccc(Cl)cc2)c1` (stereo not drawn) [Example 157, N-(3-methanesulfonylaminobenzyl)-2-[3-(4-chlorobenzyl)-6-fluoro-3,4-dihydroisoquinolin-2(1H)-yl]ethanamine], the pIC50 is 7.60.

Take `CC(C)Nc1ccc(CNCCN2Cc3cc(F)ccc3CC2Cc2ccc(F)cc2)cc1` (stereo not drawn) [Example 161, 4-[[2-[7-fluoro-3-(4-fluorobenzyl)-3,4-dihydroisoquinolin-2(1H)-yl]ethylamino]methyl]-N-isopropylaniline]: the pIC50 is 7.60.

Regarding `Fc1ccc(CC2Cc3ccccc3CN2CCNCc2ccncc2)cc1` (stereo not drawn) [Example 171, N-(pyridin-4-yl)methyl-2-[3-(4-fluorobenzyl)-3,4-dihydroisoquinolin-2(1H)-yl]ethanamine], the pIC50 was 7.85.

In the case of `Fc1ccc(CC2Cc3cc(F)ccc3CN2CCNCc2ccncc2)cc1` (stereo not drawn) [Example 180, N-(pyridin-4-yl)methyl-2-[6-fluoro-3-(4-fluorobenzyl)-3,4-dihydroisoquinolin-2(1H)-yl]ethanamine], the pIC50 is 8.70.

As a reminder, the pIC50 is −log10 of the IC50, conventionally taken in molar units.

Values taken from patent publication US8273766B2, “Tetrahydroisoquinoline compound” (Kowa Company, Ltd., priority 2007, dated 2012).
